Ends that are not written are not given here.
B1: PDGFR-beta-Fc: recombinant Fc-fusion protein obtained from R&D (385-PR-100), comparison chimera (protein)
chain: LVVTPPGPELVLNVSSTFVLTCSGSAPVVWERMSQEPPQEMAKAQDGTFSSVLTLTNLTGLDTGEYFCTHNDSRGLETDERKRLYIFVPDPTVGFLPNDAEELFIFLTEITEITIPCRVTDPQLVVTLHEKKGDVALPVPYDHQRGFSGIFEDRSYICKTTIGDREVDSDAYYVYRLQVSSINVSVNAVQTVVRQGENITLMCIVIGNEVVNFEWTYPRKESGRLVEPVTDFLLDMPYHIRSILHIPSAELEDSGTYTCNVTESVNDHQDEKAINITVVESGYVRLLGEVGTLQFAELHRSRTLQVVFEAYPPPTVLWFKDNRTLGDSSAGEIALSTRNVSETRYVSELTLVRVKVAEAGHYTMRAFHEDAEVQLSFQLQINVPVRVLELSESHPDSGEQTVRCRGRGMPQPNIIWSACRDLKRCPRELPPTLLGNSSEEESQLETNVTYWEEEQEFEVVSTLRLQHVDRPLSVRCTLRNAVGQDTQEVIVVPHSLPF
modifications: left off: a dimerising Fc or GST
notes: recombinant Fc-fusion protein obtained from R&D (385-PR-100), comparison chimera

Columns and labels:
[1] = tested on: HCMV strain TB40/E; assay type: cell-based, Human cytomegalovirus; conditions: HFFs
Method: For screening the PDGFRα peptides for their neutralizing capacity a recently developed Gaussia-Luciferase-Assay was utilized (10). The Gaussia luciferase is secreted into the cell culture supernatants, therefore it is not necessary to fix the cells and instead a sample of the Gaussia containing supernatant is taken and mixed with the substrate coelenterazine (PjK) at a final concentration of 0.2 μg/ml. The resulting light emission was detected at 495 nm. For all obtained values background signals were subtracted and neutralization efficiency was determined relative to the control samples which contained only virus, no peptide.
Cell free preparations of strain TB40/E were pre-incubated with the individual peptides at concentrations reaching from 0.05-50 nmol/ml for 2 h and the mixtures were then incubated with HFF cultures in a 96-well format. The various peptides differed greatly regarding their inhibitory potential with a region between aa120 and aa280 being absolutely ineffective and the peptides surrounding this region having the highest anti-HCMV effect (FIG. 9).

[2] = tested on: HCMV strain TB40/E; test: Inhibition of infection of fibroblasts (HFFs), IE antigen immunofluorescence; assay type: cell-based, Human cytomegalovirus; conditions: increasing concentrations, pre-incubated 2 h
Method: For testing the inhibitory effect of antivirals or fusion proteins on HCMV, the respective inhibitors were diluted in MEM and mixed with infectious supernatants, the mixtures were incubated for 2 h at 37° C. before addition to the cells. For fibroblast infection the virus-inhibitor mixture was incubated on the cells for about 24 h. If endothelial cells were included in the experiment, all cells were supplied with their respective maintenance media after 2 h, and further incubated for 22 h.
Infection efficiencies were determined by immunofluorescence staining for viral proteins. For fixation and permeabilization the cells were incubated with 80% acetone for 5 min. For HCMV infected cells the immediate early proteins pUL122/123 were detected with a mouse monoclonal (clone E13, Argene) and visualized using a Cy3 conjugated goat anti-mouse secondary antibody (Jackson Immuno Research). HSV infected cultures were stained 6 h post infection for ICP0 using a mouse monoclonal (clone 11060, Santa Cruz) and goat anti-mouse AF488 (life technologies). DAPI was used to locate nuclei. Infection rates were determined by counting the number of cell nuclei positive for the respective viral protein, as well as the total number of nuclei per image. For each condition three images were evaluated.
To test this, the inventors pre-incubated cell free preparations of HCMV strain TB40/E with variable concentrations of soluble PDGFR-alpha-Fc chimeras for 2 h before adding them to HFFs and HECs. After 2 h the virus was removed and replaced with the appropriate cell culture medium for an overnight incubation. Cultures were then fixed, and the fraction of infected cells was determined by indirect immunofluorescence staining of viral IE antigens.
Cell free preparations of TB40/E were pre-incubated with increasing concentrations of the various Fc chimeras for 2 h. HFFs were then incubated with the mixtures for 2 h followed by a medium exchange and an overnight incubation.

[3] = tested on: HCMV particles; test: Binding of chimeric receptors (Fc-fusion proteins) to HCMV particles; parameters: species or system Human cytomegalovirus; conditions: particles pre-incubated with Fc-fusion protein, attached to cells on ice
Method: To assess the binding of Fc-Proteins to virus particles, HFFs were seeded at a density of 40,000 cells per well on IBIDI plates 1 day prior to infection. Virus preparations were pre-incubated with Fc-fusion proteins at a final concentration of 500 ng/ml for 2 h at 37° C. The virus/Fc-protein mixtures were incubated with the cells for 1.5 h on ice. Before fixation with 80% acetone, the cells were washed once with MEM. For staining of viral particles mouse hybridoma recognizing the abundant viral protein pp150 (generously provided by W. Britt, Sanchez 2000) used.
The inventors tested this by staining of adsorbed virus particles with the Fc-fusion proteins. […] Virus particles were stained for the capsid protein pp150 and bound Fc-fusion proteins.
The inventors analyzed the mode of inhibition by PDGFR-alpha-Fc. For this, the binding of different concentrations of the fusion protein was quantified by assessing the particle intensities after staining with anti-human antibody (FIG. 5). […] (FIGS. 4 and 5).

Molecule | inhibition at 10 nmol/ml ([1]; 10 nmol/ml) | EC50 ([1]; pre-incubated 2 h, read-out: EC50 of inhibition of HCMV infection by peptide) [nM] | inhibitory potential of Fc chimeras on HCMV infection of HFFs [2] | binding of Fc-fusion protein to virus particles (anti-human antibody staining) [3]
GRHIYIYVPDPDVAFVPLGMTDYLVIVEDDDSAIIPCRTT [peptide between aa90 and aa130] | almost complete inhibition | 2000 |  | 
B1 |  |  | neither PDGFR-beta-Fc nor EGFR-Fc had an effect | visualized only those particles that were pre-treated with PDGFR-alpha-Fc

Source: US11390661B2, “HCMV entry inhibitors” (priority 2016, dated 2022)
